From ChEMBL document CHEMBL2074047, “Functional characterization of mouse cation transporter mOCT2 compared with mOCT1” (Biochem Biophys Res Commun, 2002)

B1: Solute carrier family 22 member 2 (Mus musculus) (protein)
chain: MPTVDDILEHIGEFHLFQKQTFFLLALLSGAFTPIYVGIVFLGFTPNHHCRSPGVAELSQRCGWSPAEELNYTVPGLGSAGEVSFLSQCMRYEVDWNQSTLDCVDPLSSLAANRSHLPLSPCEHGWVYDTPGSSIVTEFNLVCAHSWMLDLFQSLVNVGFFIGAVGIGYLADRFGRKFCLLVTILINAISGVLMAISPNYAWMLVFRFLQGLVSKAGWLIGYILITEFVGLGYRRTVGICYQIAFTVGLLILAGVAYALPNWRWLQFAVTLPNFCFLLYFWCIPESPRWLISQNKNAKAMKIIKHIAKKNGKSVPVSLQSLTADEDTGMKLNPSFLDLVRTPQIRKHTLILMYNWFTSSVLYQGLIMHMGLAGDNIYLDFFYSALVEFPAAFIIILTIDRIGRRYPWAVSNMVAGAACLASVFIPDDLQWLKITVACLGRMGITIAYEMVCLVNAELYPTYIRNLAVLVCSSMCDIGGIVTPFLVYRLTDIWLEFPLVVFAVVGLVAGGLVLLLPETKGKALPETIEDAEKMQRPRKKKEKRIYLQVKKAELS
B2: Solute carrier family 22 member 1 (Mus musculus) (protein)
chain: MPTVDDVLEHVGEFGWFQKQAFLLLCLISASLAPIYVGIVFLGFTPDHHCRSPGVAELSQRCGWSPAEELNYTVPGLGSAGEASFLSQCMKYEVDWNQSTLDCVDPLSSLAANRSHLPLSPCEHGWVYDTPGSSIVTEFNLVCGDAWKVDLFQSCVNLGFFLGSLVVGYIADRFGRKLCLLVTTLVTSLSGVLTAVAPDYTSMLLFRLLQGMVSKGSWVSGYTLITEFVGSGYRRTTAILYQVAFTVGLVGLAGVAYAIPDWRWLQLAVSLPTFLFLLYYWFVPESPRWLLSQKRTTQAVRIMEQIAQKNRKVPPADLKMMCLEEDASERRSPSFADLFRTPSLRKHTLILMYLWFSCAVLYQGLIMHVGATGANLYLDFFYSSLVEFPAAFIILVTIDRIGRIYPIAASNLVAGAACLLMIFIPHELHWLNVTLACLGRMGATIVLQMVCLVNAELYPTFIRNLGMMVCSALCDLGGIFTPFMVFRLMEVWQALPLILFGVLGLSAGAVTLLLPETKGVALPETIEEAENLGRRKSKAKENTIYLQVQTGKSPHT

Tests used:
[1] = target: T1, Solute carrier family 22 member 2 (Mus musculus, UniProt O70577); test: (§1) TP_TRANSPORTER: inhibition of MPP+ uptake (MPP+: 1 uM) in Xenopus laevis oocytes; assay type: functional, cell-based, Oocyte
T1 sequence (O70577 whole entry): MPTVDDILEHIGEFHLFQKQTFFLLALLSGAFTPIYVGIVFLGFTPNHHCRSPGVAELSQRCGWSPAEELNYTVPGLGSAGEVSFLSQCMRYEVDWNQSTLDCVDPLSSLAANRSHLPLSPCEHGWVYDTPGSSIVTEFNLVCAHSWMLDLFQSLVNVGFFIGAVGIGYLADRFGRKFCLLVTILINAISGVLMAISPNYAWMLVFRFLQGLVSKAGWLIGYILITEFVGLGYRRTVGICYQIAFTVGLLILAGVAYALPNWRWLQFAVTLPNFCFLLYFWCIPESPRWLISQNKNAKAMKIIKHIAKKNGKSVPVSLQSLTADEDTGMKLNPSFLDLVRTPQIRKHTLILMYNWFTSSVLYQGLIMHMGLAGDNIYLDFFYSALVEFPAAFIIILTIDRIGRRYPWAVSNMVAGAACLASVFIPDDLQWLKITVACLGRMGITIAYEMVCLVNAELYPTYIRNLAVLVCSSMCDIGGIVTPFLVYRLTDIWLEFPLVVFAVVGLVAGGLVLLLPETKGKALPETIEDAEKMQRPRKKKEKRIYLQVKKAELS

[2] = target: T2, Solute carrier family 22 member 1 (Mus musculus, UniProt O08966); test: as §1; assay type: functional, cell-based, Oocyte
T2 sequence (O08966 whole entry): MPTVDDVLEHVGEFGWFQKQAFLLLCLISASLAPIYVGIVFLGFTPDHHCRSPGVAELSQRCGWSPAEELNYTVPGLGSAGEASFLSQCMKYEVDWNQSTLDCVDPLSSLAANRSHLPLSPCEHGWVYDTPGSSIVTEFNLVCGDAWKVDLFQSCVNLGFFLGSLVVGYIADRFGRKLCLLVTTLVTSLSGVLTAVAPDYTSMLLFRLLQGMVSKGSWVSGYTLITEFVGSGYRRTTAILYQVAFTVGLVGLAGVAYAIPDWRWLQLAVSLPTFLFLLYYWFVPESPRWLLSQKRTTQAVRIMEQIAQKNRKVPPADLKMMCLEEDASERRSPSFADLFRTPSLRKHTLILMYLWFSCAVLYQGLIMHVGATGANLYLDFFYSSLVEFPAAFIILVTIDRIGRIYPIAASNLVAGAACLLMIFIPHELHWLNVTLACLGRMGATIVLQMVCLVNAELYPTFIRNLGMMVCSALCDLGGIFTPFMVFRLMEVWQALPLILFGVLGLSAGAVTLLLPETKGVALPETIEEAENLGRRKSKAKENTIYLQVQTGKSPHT

[3] = substrate: CC[N+](CC)(CC)CC; test: cells, lysate or membranes named
[4] = substrate: C[n+]1ccc(-c2ccccc2)cc1; test: TP_TRANSPORTER: uptake in Xenopus laevis oocytes; assay type: functional, cell-based, Oocyte

Molecule	IC50 [1] [µM]	IC50 [2] [µM]	Km [3] [µM]	Km [4] [µM]
CNC(=O)c1cccnc1 [NICOTINYL METHYLAMIDE]	13700	7340	–	–
CC[N+](CC)(CC)CC [TETRYLAMMONIUM]	3.5	0.54	–	–
CN/C(=N/CCSCc1nc[nH]c1C)NC#N [CIMETIDINE]	8	0.59	–	–
C[N+](C)(C)CCO [CHOLINE]	217	55	–	–
CCN(CC)CCNC(=O)c1ccc(N)cc1 [PROCAINAMIDE]	312	3.9	–	–
C=C[C@H]1C[N@@]2CC[C@H]1C[C@H]2[C@H](O)c1ccnc2ccc(OC)cc12 [QUININE]	2.8	–	–	–
B1	–	–	35.7	24
B2	–	–	–	10
